# Starred links: 1 amine or outer side, 2 acyl side, 3 side chain; linkers in the order of their positions; H or OH if unused. Non-standard residues stand in square brackets, D forms with d. Residues, ends and D or L forms follow the SMILES beside them. Groups on a side chain read outwards from the residue. *: point of attachment. C18 diacid = O=C(O)CCCCCCCCCCCCCCCCC(=O)*; αMePhe(2-F) = C[C@](N)(Cc1ccccc1F)C(=O)O; γGlu = O=C(O)[C@H](CCC(=O)[*:2])N[*:1]; AEEA = NCCOCCOCC(=O)O; Aib = CC(C)(N)C(=O)O
# Key:
# Type in all cases: cell-based
# GIPR = target: T1, GIPR (Homo sapiens, UniProt P48546); assay: In vitro cell activity, cAMP production in HEK293 cells expressing GIPR; settings: HEK293-GIPR cells, cAMP; read-out: GIPR (EC50)
# T1 construct: expressed in transfected cells; host or cells: HEK293 (HEK293-GIPR)
# T1 sequence (P48546 22-466): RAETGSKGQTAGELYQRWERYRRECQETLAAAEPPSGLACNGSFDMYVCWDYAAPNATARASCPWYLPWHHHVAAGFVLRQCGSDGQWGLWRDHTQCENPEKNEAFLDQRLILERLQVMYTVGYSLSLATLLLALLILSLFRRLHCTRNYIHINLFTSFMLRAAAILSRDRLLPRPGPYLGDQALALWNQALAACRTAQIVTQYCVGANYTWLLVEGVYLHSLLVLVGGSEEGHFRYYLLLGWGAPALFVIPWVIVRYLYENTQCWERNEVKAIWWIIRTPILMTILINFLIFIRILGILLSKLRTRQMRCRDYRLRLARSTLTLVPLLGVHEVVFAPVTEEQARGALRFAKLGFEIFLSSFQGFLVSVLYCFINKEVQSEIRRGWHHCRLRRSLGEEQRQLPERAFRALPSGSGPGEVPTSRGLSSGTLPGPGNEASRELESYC
# Method in brief: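 HEK293 cells expressing human GIPR, thawed and diluted to 4×10^5 cells/mL, are stimulated with test compound. cAMP is measured by HTRF competition between cAMP-d2 and anti-cAMP cryptate. EC50 comes from a four-parameter nonlinear fit of signal ratio against concentration.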
# GCGR = target: T2, GCGR (Homo sapiens, UniProt P47871); assay: In vitro cell activity, cAMP production in HEK293 cells expressing GCGR; settings: HEK293-GCGR cells, cAMP; read-out: GCGR (EC50)
# T2 construct: expressed in transfected cells; host or cells: HEK293 (HEK293-GCGR)
# Method in brief: (§1)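 HEK293 transfectants, 4×10^5 cells/mL, 384-well. Detection: cAMP-d2 + anti-cAMP cryptate 1:1, RT 1 h dark or 4 °C o/n. Read 665/620 nm; 4-parameter nonlinear fit → EC50.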
# GLP-1R = target: T3, GLP-1R (Homo sapiens, UniProt P43220); assay: In vitro cell activity, cAMP production in HEK293 cells expressing GLP-1R; settings: HEK293-GLP-1R cells, cAMP; read-out: GLP-1R (EC50)
# T3 construct: expressed in transfected cells; host or cells: HEK293 (HEK293-GLP-1R)
# Method in brief: as §1
# T2 sequence (P47871 26-477, species assumed): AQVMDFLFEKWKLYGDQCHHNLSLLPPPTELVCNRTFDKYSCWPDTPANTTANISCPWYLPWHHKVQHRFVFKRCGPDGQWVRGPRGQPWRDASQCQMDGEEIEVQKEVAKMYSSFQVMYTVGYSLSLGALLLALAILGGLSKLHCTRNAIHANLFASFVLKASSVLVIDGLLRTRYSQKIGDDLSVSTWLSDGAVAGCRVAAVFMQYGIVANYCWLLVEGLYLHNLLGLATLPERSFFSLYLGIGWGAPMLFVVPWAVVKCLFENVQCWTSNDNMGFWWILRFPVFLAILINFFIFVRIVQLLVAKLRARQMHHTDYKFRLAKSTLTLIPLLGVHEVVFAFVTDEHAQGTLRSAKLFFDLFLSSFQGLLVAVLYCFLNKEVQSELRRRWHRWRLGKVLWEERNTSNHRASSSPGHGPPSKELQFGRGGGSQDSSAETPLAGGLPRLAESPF
# T3 sequence (P43220 24-463, species assumed): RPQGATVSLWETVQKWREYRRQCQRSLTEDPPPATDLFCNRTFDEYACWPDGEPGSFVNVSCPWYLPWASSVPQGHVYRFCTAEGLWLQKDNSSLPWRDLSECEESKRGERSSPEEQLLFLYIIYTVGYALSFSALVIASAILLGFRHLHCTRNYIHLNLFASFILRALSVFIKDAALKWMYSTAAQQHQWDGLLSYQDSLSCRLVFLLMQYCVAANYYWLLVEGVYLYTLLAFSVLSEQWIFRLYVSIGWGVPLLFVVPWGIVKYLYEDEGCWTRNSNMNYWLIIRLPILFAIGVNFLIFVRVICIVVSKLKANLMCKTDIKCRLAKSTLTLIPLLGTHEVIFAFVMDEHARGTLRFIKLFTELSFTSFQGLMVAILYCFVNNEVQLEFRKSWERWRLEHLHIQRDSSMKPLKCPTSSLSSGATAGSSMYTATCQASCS
smiles,measurement,setting,value
CC[C@H](C)[C@H](NC(=O)[C@H](CO)NC(=O)[C@H](Cc1ccc(O)cc1)NC(=O)[C@H](CC(=O)O)NC(=O)[C@H](CO)NC(=O)[C@@H](NC(=O)[C@](C)(Cc1ccccc1F)NC(=O)[C@@H](NC(=O)CNC(=O)[C@H](CCC(N)=O)NC(=O)C(C)(C)NC(=O)[C@@H](N)Cc1ccc(O)cc1)[C@@H](C)O)[C@@H](C)O)C(=O)N[C@@H](CC(C)C)C(=O)N[C@@H](CC(C)C)C(=O)N[C@@H](CC(=O)O)C(=O)N[C@@H](CCC(=O)O)C(=O)N[C@@H](CCCCNC(=O)COCCOCCNC(=O)CC[C@H](NC(=O)CCCCCCCCCCCCCCCCC(=O)O)C(=O)O)C(=O)N[C@@H](CCCNC(=N)N)C(=O)N[C@@H](CCC(N)=O)C(=O)N[C@@H](CCCNC(=N)N)C(=O)N[C@@H](C)C(=O)N[C@@H](Cc1ccccc1)C(=O)N[C@H](C(=O)N[C@@H](CCC(=O)O)C(=O)N[C@@H](Cc1ccc(O)cc1)C(=O)N[C@@H](CC(C)C)C(=O)N[C@@H](CC(C)C)C(=O)N[C@@H](C)C(=O)NCC(=O)NCC(=O)N1CCC[C@H]1C(=O)N[C@@H](CO)C(=O)N[C@@H](CO)C(=O)NCC(=O)N[C@@H](C)C(=O)N1CCC[C@H]1C(=O)N1CCC[C@H]1C(=O)N1CCC[C@H]1C(=O)N[C@@H](CO)C(=O)O)C(C)C [HEC-PT135],EC50,GIPR,0.283 nM
same,EC50,GCGR,0.902 nM
same,EC50,GLP-1R,0.19 nM
CC[C@H](C)[C@H](NC(=O)[C@H](Cc1ccccc1)NC(=O)[C@H](CC(=O)O)NC(=O)[C@H](CCCNC(=N)N)NC(=O)[C@H](CCC(N)=O)NC(=O)[C@H](C)NC(=O)[C@H](CCCCNC(=O)COCCOCCNC(=O)CC[C@H](NC(=O)CCCCCCCCCCCCCCCCCCC(=O)O)C(=O)O)NC(=O)[C@H](CCC(=O)O)NC(=O)[C@H](CC(=O)O)NC(=O)[C@H](CC(C)C)NC(=O)[C@H](CC(C)C)NC(=O)[C@@H](NC(=O)[C@H](CO)NC(=O)[C@H](Cc1ccc(O)cc1)NC(=O)[C@H](CC(=O)O)NC(=O)[C@H](CO)NC(=O)[C@@H](NC(=O)[C@](C)(Cc1ccccc1F)NC(=O)[C@@H](NC(=O)CNC(=O)[C@H](Cc1c[nH]cn1)NC(=O)C(C)(C)NC(=O)[C@@H](N)Cc1ccc(O)cc1)[C@@H](C)O)[C@@H](C)O)[C@@H](C)CC)C(=O)N[C@@H](CCC(=O)O)C(=O)N[C@@H](Cc1c[nH]c2ccccc12)C(=O)N[C@@H](CC(C)C)C(=O)N[C@@H](CC(C)C)C(=O)N[C@@H](C)C(=O)NCC(=O)NCC(=O)N1CCC[C@H]1C(=O)N[C@@H](CO)C(=O)N[C@@H](CO)C(=O)NCC(=O)N[C@@H](C)C(=O)N1CCC[C@H]1C(=O)N1CCC[C@H]1C(=O)N1CCC[C@H]1C(=O)N[C@@H](CO)C(=O)O [HEC-PT65],EC50,GIPR,0.157 nM
same,EC50,GCGR,1.36 nM
same,EC50,GLP-1R,0.624 nM
CC[C@H](C)[C@H](NC(=O)[C@H](CO)NC(=O)[C@H](Cc1ccc(O)cc1)NC(=O)[C@H](CC(=O)O)NC(=O)[C@H](CO)NC(=O)[C@@H](NC(=O)[C@](C)(Cc1ccccc1F)NC(=O)[C@@H](NC(=O)CNC(=O)[C@H](CCC(N)=O)NC(=O)C(C)(C)NC(=O)[C@@H](N)Cc1ccc(O)cc1)[C@@H](C)O)[C@@H](C)O)C(=O)N[C@@H](CC(C)C)C(=O)N[C@@H](CCCCNC(=O)COCCOCCNC(=O)CC[C@H](NC(=O)CCCCCCCCCCCCCCCCC(=O)O)C(=O)O)C(=O)N[C@@H](CC(=O)O)C(=O)N[C@@H](CCCNC(=N)N)C(=O)N[C@@H](CCCNC(=N)N)C(=O)N[C@@H](C)C(=O)N[C@@H](CCC(N)=O)C(=O)N[C@@H](CCC(N)=O)C(=O)N[C@@H](C)C(=O)N[C@@H](Cc1ccccc1)C(=O)N[C@H](C(=O)N[C@@H](CCC(=O)O)C(=O)N[C@@H](Cc1ccc(O)cc1)C(=O)N[C@@H](CC(C)C)C(=O)N[C@@H](CC(C)C)C(=O)N[C@@H](CCC(=O)O)C(=O)NCC(=O)NCC(=O)N1CCC[C@H]1C(=O)N[C@@H](CO)C(=O)N[C@@H](CO)C(=O)NCC(=O)N[C@@H](C)C(=O)N1CCC[C@H]1C(=O)N1CCC[C@H]1C(=O)N1CCC[C@H]1C(=O)N[C@@H](CO)C(=O)O)C(C)C [HEC-PT149] (H-Y[Aib]QGT[αMePhe(2-F)]TSDYSILK([AEEA-γGlu-C18 diacid])DRRAQQAFVEYLLEGGPSSGAPPPS-OH),EC50,GIPR,0.264 nM
same,EC50,GCGR,0.138 nM
same,EC50,GLP-1R,0.0868 nM
CC[C@H](C)[C@H](NC(=O)[C@H](Cc1ccccc1)NC(=O)[C@H](C)NC(=O)[C@H](CCCNC(=N)N)NC(=O)[C@H](CCC(N)=O)NC(=O)[C@H](C)NC(=O)[C@H](CCCCNC(=O)COCCOCCNC(=O)CC[C@H](NC(=O)CCCCCCCCCCCCCCCCCCC(=O)O)C(=O)O)NC(=O)[C@H](CCC(=O)O)NC(=O)[C@H](CC(=O)O)NC(=O)[C@H](CC(C)C)NC(=O)[C@H](CC(C)C)NC(=O)[C@@H](NC(=O)[C@H](CO)NC(=O)[C@H](Cc1ccc(O)cc1)NC(=O)[C@H](CC(=O)O)NC(=O)[C@H](CO)NC(=O)[C@@H](NC(=O)[C@](C)(Cc1ccccc1F)NC(=O)[C@@H](NC(=O)CNC(=O)[C@H](CCC(N)=O)NC(=O)C(C)(C)NC(=O)[C@@H](N)Cc1ccc(O)cc1)[C@@H](C)O)[C@@H](C)O)[C@@H](C)CC)C(=O)N[C@@H](CCC(=O)O)C(=O)N[C@@H](Cc1ccc(O)cc1)C(=O)N[C@@H](CC(C)C)C(=O)N[C@@H](CC(C)C)C(=O)N[C@@H](C)C(=O)NCC(=O)NCC(=O)N1CCC[C@H]1C(=O)N[C@@H](CO)C(=O)N[C@@H](CO)C(=O)NCC(=O)N[C@@H](C)C(=O)N1CCC[C@H]1C(=O)N1CCC[C@H]1C(=O)N1CCC[C@H]1C(=O)N[C@@H](CO)C(=O)O [HEC-PT95],EC50,GIPR,0.237 nM
same,EC50,GCGR,0.682 nM
same,EC50,GLP-1R,0.156 nM
CC[C@H](C)[C@H](NC(=O)[C@H](CO)NC(=O)[C@H](Cc1ccc(O)cc1)NC(=O)[C@H](CC(=O)O)NC(=O)[C@H](CO)NC(=O)[C@@H](NC(=O)[C@](C)(Cc1ccccc1F)NC(=O)[C@@H](NC(=O)CNC(=O)[C@H](CCC(N)=O)NC(=O)C(C)(C)NC(=O)[C@@H](N)Cc1ccc(O)cc1)[C@@H](C)O)[C@@H](C)O)C(=O)N[C@@H](CC(C)C)C(=O)N[C@@H](CCCCNC(=O)COCCOCCNC(=O)CC[C@H](NC(=O)CCCCCCCCCCCCCCCCC(=O)O)C(=O)O)C(=O)N[C@@H](CC(=O)O)C(=O)N[C@@H](CCCNC(=N)N)C(=O)N[C@@H](CCCNC(=N)N)C(=O)N[C@@H](C)C(=O)N[C@@H](CCC(N)=O)C(=O)N[C@@H](CCC(N)=O)C(=O)N[C@@H](C)C(=O)N[C@@H](Cc1ccccc1)C(=O)N[C@H](C(=O)N[C@@H](CCC(=O)O)C(=O)N[C@@H](Cc1ccc(O)cc1)C(=O)N[C@@H](CC(C)C)C(=O)N[C@@H](CC(C)C)C(=O)N[C@@H](C)C(=O)NCC(=O)NCC(=O)N1CCC[C@H]1C(=O)N[C@@H](CO)C(=O)N[C@@H](CO)C(=O)NCC(=O)N[C@@H](C)C(=O)N1CCC[C@H]1C(=O)N1CCC[C@H]1C(=O)N1CCC[C@H]1C(=O)N[C@@H](CO)C(=O)O)C(C)C [HEC-PT148] (H-Y[Aib]QGT[αMePhe(2-F)]TSDYSILK([AEEA-γGlu-C18 diacid])DRRAQQAFVEYLLAGGPSSGAPPPS-OH),EC50,GIPR,0.312 nM
same,EC50,GCGR,0.162 nM
same,EC50,GLP-1R,0.0741 nM

# — EP4596574A1, “GLP-1/GCG/GIP TRIPLE-RECEPTOR AGONIST AND USE THEREOF” (Sunshine Lake Pharma Co., Ltd., priority 2022, dated 2024)
